Key:
[1] = test system: Oryza sativa; test: Test Method 1: soil application in paddy fields, phytotoxicity on transplanted paddy field rice plants; type: in vivo, Oryza sativa (variety: Koshihikari); details: 1 kg ai/ha, transplanted rice at two-leaf stage, assessed 28 days after application; further: ranges in brackets are in %
Procedure: (§1) Test Method 1 (Soil Application in Paddy Fields) A suitable amount of water and chemical fertiliser were added to paddy field soil. A plastic pot (1/5000 a; 200 cm2) was filled with a portion of this soil followed by kneading to convert it to a state of a paddy field. A stock of paddy field rice plant (variety: Koshihikari) comprising a pair of two seedlings, which had been grown in advance in a greenhouse to the stage of two leaves, was transplanted into each pot. Furthermore, in each pot, there were sown predetermined amounts of seeds of Echinochloa orizicola, Monochoria vaginalis var. plantaginea, Lindernia procumbens and Scirpus jundoides var. hotarui, respectively, and water was added to a depth of 3 cm. On the next day a wettable powder formula was prepared by the method described in the Formulation Example 2, and diluted with a suitable amount of water to give a concentration of active ingredient of 1 kg per ha. The diluted formula was applied by dropping with a pipette. After 28 days from the application with the chemicals, herbicidal effects on each weeds and phytotoxicity on paddy field rice plants were assessed according to the following criteria of Table 3. [table]

[2] = test system: Soya, Maize, Rice, Wheat; test: Test Method 2: crop damage / selectivity, glass house pot test; type: in vivo, crop species; details: at levels of applications toxic to the weeds
Procedure: TEST METHOD 2 a) General Appropriate quantities of the compounds used to treat the plants were dissolved in acetone to give solutions equivalent to application rates of up to 250 g test compound per hectare (g/ha). These solutions were applied from an automatic laboratory herbicide sprayer delivering the equivalent of 720 liters of spray fluid per hectare. b) Weed control: Pre-emergence The seeds were sown in 70 mm square, 75 mm deep plastic pots in non-sterile soil, 3 species per pot. The quantities of seed per pot were as follows: [table] The compounds of the invention were applied to the soil surface, containing the seeds, as described in (a). Pots containing the species represented were allocated to each treatment, with unsprayed controls and controls sprayed with acetone alone. After treatment the pots were placed on capillary matting kept in a glass house, and watered overhead. Visual assessment of crop damage was made 17 days after spraying. The results were expressed as the percentage reduction in growth or damage to the crop or weeds, in comparison with the plants in the control pots.

[3] = test system: Scirpus juncoides; test: Test Method 1: soil application in paddy fields, herbicidal efficacy; type: in vivo; details: 1 kg ai/ha, wettable powder applied to paddy water, assessed 28 days after application; further: ranges in brackets are in %
Procedure: as §1

[4] = test system: Monochoria vaginalis; test: as above; type: in vivo; details: 1 kg ai/ha, wettable powder applied to paddy water, assessed 28 days after application; further: ranges in brackets are in %
Procedure: as §1

[5] = test system: Echinochloa oryzicola; test: as above; type: in vivo; details: 1 kg ai/ha, wettable powder applied to paddy water, assessed 28 days after application; further: ranges in brackets are in %
Procedure: as §1

[6] = test system: Lindemia procunbens; test: as above; type: in vivo; details: 1 kg ai/ha, wettable powder applied to paddy water, assessed 28 days after application; further: ranges in brackets are in %
Procedure: as §1

| Compound | Phytotoxicity ORYSA [1] | crop selectivity [2] | Herbicidal efficacy (Point) SCPJU [3] | Herbicidal efficacy (Point) MOOVA [4] | Herbicidal efficacy (Point) ECHOR [5] | Herbicidal efficacy (Point) LIDPY [6] | Phytotoxicity ORYSA ([1]; listed as 5.146 E isomer) | Herbicidal efficacy (Point) ECHOR ([5]; listed as 5.146 E isomer) | Herbicidal efficacy (Point) LIDPY ([6]; listed as 5.146 E isomer) | Phytotoxicity ORYSA ([1]; listed as 5.146 Z isomer) | Herbicidal efficacy (Point) ECHOR ([5]; listed as 5.146 Z isomer) | Herbicidal efficacy (Point) LIDPY ([6]; listed as 5.146 Z isomer) |
| --- | --- | --- | --- | --- | --- | --- | --- | --- | --- | --- | --- | --- |
| COC=C(Oc1ccc(Cl)cc1CBr)C(=O)OC [Compound 1.73] | 2 (10-20) | selective in at least one crop species | 9 (80-90) | 10 (90-100) | 10 (90-100) | 7 (60-70) | – | – | – | – | – | – |
| COC=C(Oc1ccc(Cl)cc1CO)C(=O)OC [Compound 1.313, Methyl 2-(2-Hydroxymethyl-4-chlorophenoxy)-3-methoxyacrylate] | 3 (20-30) | selective in at least one crop species | 10 (90-100) | 10 (90-100) | 10 (90-100) | 10 (90-100) | – | – | – | – | – | – |
| COC=C(Oc1ccccc1COc1ccccc1C)C(=O)OC [Compound 2.6, Methyl 2-[2-(2-Methylphenoxy)methylphenoxy]-3-methoxyacrylate] | 3 (20-30) | – | 7 (60-70) | 10 (90-100) | 10 (90-100) | 8 (70-80) | – | – | – | – | – | – |
| COC=C(Oc1ccc(Cl)cc1COc1ccccc1C)C(=O)OC [Compound 2.129] | 2 (10-20) | selective in at least one crop species | 8 (70-80) | 10 (90-100) | 10 (90-100) | 9 (80-90) | – | – | – | – | – | – |
| COC=C(Oc1ccc(Cl)cc1COc1ccccc1C)C(=O)O [Compound 2.135, 2-[4-Chloro-2-(2-methylphenoxymethyl)]phenoxy-3-methoxyacrylic Acid] | 0 (0) | – | 4 (30-40) | 9 (80-90) | 4 (30-40) | 0 (0) | – | – | – | – | – | – |
| COC=C(Oc1ccc(Cl)cc1COC(C)=O)C(=O)OC [Compound 2.619, Methyl 2-(2-Acetyloxymethyl-4-chlorophenoxy)-3-methoxyacrylate] | 3 (20-30) | selective in at least one crop species | 9 (80-90) | 10 (90-100) | 10 (90-100) | 10 (90-100) | – | – | – | – | – | – |
| COC=C(Oc1ccc(Cl)cc1CON=C(C)C)C(=O)OC [Compound 4.61] | 1 (0-10) | – | 9 (80-90) | 9 (80-90) | 10 (90-100) | 10 (90-100) | – | – | – | – | – | – |
| COC=C(Oc1ccccc1CON=C(C)c1ccc(Cl)cc1)C(=O)OC [Compound 4.68] | 3 (20-30) | – | 6 (50-60) | 10 (90-100) | 10 (90-100) | 8 (70-80) | – | – | – | – | – | – |
| COC=C(Oc1ccc(Cl)cc1CON=C(C)c1ccc(Cl)cc1)C(=O)OC [Compound 4.71] | 3 (20-30) | selective in at least one crop species | 9 (80-90) | 10 (90-100) | 10 (90-100) | 9 (80-90) | – | – | – | – | – | – |
| COC=C(Oc1ccccc1CON=C(C)OCc1ccccc1)C(=O)OC [Compound 4.99] | 3 (20-30) | – | 5 (40-50) | 10 (90-100) | 9 (80-90) | 8 (70-80) | – | – | – | – | – | – |
| COC=C(Oc1ccc(Cl)cc1CON=C(C)OCc1ccccc1)C(=O)OC [Compound 4.107] | 1 (0-10) | selective in at least one crop species | 9 (80-90) | 10 (90-100) | 10 (90-100) | 5 (40-50) | – | – | – | – | – | – |
| CCC(=NOCc1ccccc1)OCc1ccccc1OC(=COC)C(=O)OC [Compound 5.146 E isomer, Methyl 2-{2-[(1-Benzyloxyiminopropyl)oxymethyl]phenoxy}-3-methoxyacrylate] | – | – | – | – | – | – | 2 (10-20) | 9 (80-90) | 8 (70-80) | – | – | – |
| CCC(=NOCc1ccccc1)OCc1ccccc1OC(=COC)C(=O)OC [Compound 5.146 Z isomer, Methyl 2-{2-[(1-Benzyloxyiminopropyl)oxymethyl]phenoxy}-3-methoxyacrylate] | – | – | 3 (20-30) | 10 (90-100) | – | – | – | – | – | 3 (20-30) | 10 (90-100) | 9 (80-90) |
| CCC(=NOCc1ccccc1)OCc1cc(Cl)ccc1OC(=COC)C(=O)OC [Compound 5.541 E isomer] | 1 (0-10) | selective in at least one crop species | 9 (80-90) | 10 (90-100) | 10 (90-100) | 10 (90-100) | – | – | – | – | – | – |

Source: patent US6337306B1, “Phenoxyacetic acid derivatives and their use as herbicides” (Rhone-Poulenc Agro, priority 1997, dated 2002)
